Measured values as given in ChEMBL document CHEMBL5385863, “Targeting the phosphoserine phosphatase MtSerB2 for tuberculosis drug discovery, an hybrid knowledge based /fragment based approach” (Eur J Med Chem, 2023).
Activity calls are given as the source filed them. The rule behind the calls is not given here.

Experiments:
[1] = target: Phosphoserine phosphatase SerB2 (Mycobacterium tuberculosis) (UniProt O53289); assay: Inhibition of Mycobacterium tuberculosis SerB2 expressed in Escherichia coli BL21 at 1 mM incubated for 10 mins by malachite green dye based phosphatase assay
[2] = target: Phosphoserine phosphatase SerB2 (Mycobacterium tuberculosis) (UniProt O53289); assay: Binding affinity to Mycobacterium tuberculosis SerB2 expressed in Escherichia coli BL21 (DE3) cells assessed as protein destabilization at 4 mM by differential scanning fluorimetry
[3] = target: Phosphoserine phosphatase SerB2 (Mycobacterium tuberculosis) (UniProt O53289); assay: Binding affinity to Mycobacterium tuberculosis SerB2 expressed in Escherichia coli BL21 (DE3) cells assessed as change in melting temperature at 4 mM by differential scanning fluorimetry
[4] = target: Phosphoserine phosphatase SerB2 (Mycobacterium tuberculosis) (UniProt O53289); assay: Inhibition of Mycobacterium tuberculosis SerB2 expressed in Escherichia coli BL21 at 1 mM incubated for 10 mins by malachite green dye based phosphatase assay relative to control

Chain of Phosphoserine phosphatase SerB2 (Mycobacterium tuberculosis) (O53289 whole entry): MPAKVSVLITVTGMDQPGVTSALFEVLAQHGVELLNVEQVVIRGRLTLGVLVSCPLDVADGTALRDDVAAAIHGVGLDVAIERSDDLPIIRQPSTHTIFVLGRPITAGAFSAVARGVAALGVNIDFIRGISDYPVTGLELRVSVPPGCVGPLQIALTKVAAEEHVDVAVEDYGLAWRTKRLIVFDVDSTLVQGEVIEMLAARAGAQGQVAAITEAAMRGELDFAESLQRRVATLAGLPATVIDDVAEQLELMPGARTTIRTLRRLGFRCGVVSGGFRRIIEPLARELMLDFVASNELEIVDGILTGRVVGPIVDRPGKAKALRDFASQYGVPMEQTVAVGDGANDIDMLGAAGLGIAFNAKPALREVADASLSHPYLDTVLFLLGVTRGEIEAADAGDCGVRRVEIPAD

Structure (SMILES) | inhibition [1] | Activity [2] | ΔTm [3] | inhibition [4]
NCCCP(=O)(O)O | Active |  |  | 
Nc1ccncc1 |  | Active | > 0.5 °C | 
Nc1ccc(C(=O)O)c(O)c1 | Active |  |  | 
c1ccc(-c2c[nH]cn2)cc1 |  | Active | > 0.5 °C | 
CCC(N)P(=O)(O)O (configuration not stated) | Active |  |  | 
Cc1cc(C2CCCCC2)n(O)c(=O)c1 |  | Active | > 0.5 °C | 
O=C(NO)Nc1ccc(Cl)cc1Cl |  | Active | > 0.5 °C | > 50%
N[C@@H](CCS(=O)(=O)O)C(=O)O |  | Active | > 0.5 °C | 
O=P(O)(O)C(O)(Cn1ccnc1)P(=O)(O)O |  | Active | > 0.5 °C | > 50%
O=C(O)c1cc(O)ccn1 |  | Active | > 0.5 °C | > 50%
Nc1ccc(O)cc1 |  | inactive | > 0.5 °C | > 50%
c1c[nH]cn1 | Active |  |  | 
NC(=O)NO | Active | Active | > 0.5 °C | 
